Patent US20110053896A1, “OSMOLYTES FOR THE TREATMENT OF ALLERGIC OR VIRAL RESPIRATORY DISEASES” (priority 2007, published 2011)

Tests used:
[1] = system: ICAM-1 expression; experiment: Reduction of ICAM-1 expression by DGP in UVA-irradiated ceratinozytes; assay type: cell-based; conditions: Human ceratinozytes pretreated with DGP for 24 hours, UVA radiation
Protocol: Human ceratinozytes were pretreated with DGP for 24 hours. After radiation using UVA rays (environment noxes) the quantity of ICAM-1 was measured.

[2] = system: Balb/c mice sensitized with ovalbumin (acute allergic asthma); experiment: Ovalbumin-sensitized mice, allergic asthma model, intranasal ectoine solution; assay type: in vivo; conditions: 50 μl intranasal, 14 treatments day 0 to 32, compared to 0.9% salt solution
Protocol: Seven-months-old mice of the inbred strain Balb/c were sensitized by injecting them intraperitoneally with a mixture of ovalbumin and aluminum hydroxide contained in a total volume of 200 μl buffer (PBS). The injection was made twice, once on day 0 and once on day 14. The size of each group tested was n=8.
In order to subsequently induce the allergic reaction in the lungs of the mice, i.e. s to trigger the acute allergic asthma, the mice were treated inhalatively with an ovalbumin aerosol for 30 minutes each on days 28 and 38. For this purpose, the mice were placed in a plexiglass chamber, into which a misty 1% OVA solution was introduced through an inhaler.
For ectoine treatment, the animals were anesthetized with a mixture of ketamine and rompune. 50 μl of a sterile ectoine solution or 0.9% salt solution was applied in front of the nostrils with glass capillaries until the solution was completed inhaled. The treatments—14 in all—started on day 0. The last treatment was administered on day 32.
The end points of the study were defined as the bronchial hyperreactivity as measured with a plethysmograph, the b ronchoalveolar lavage (BAL) cellular composition and the release of OVA-specific igE and igG1 antibodies.

[3] = system: rats sensitized to ovalbumin (OVA), early allergic reaction; experiment: Ovalbumin-induced allergic asthma in rats, early allergic reaction (lung function); assay type: in vivo; conditions: intratracheal pretreatment 48 h, 24 h and 2 h before ovalbumin challenge, in comparison to the negative control
Description: (§1) The study population consisted of 4 treatment groups, a reference group, a sham-sensitized and vehicle-treated negative control group, and a vehicle-treated positive control group. The group size was n=16.
In the first phase of the study, all animals, except for the sham-sensitized group, were systemically sensitized to ovalbumin (OVA) plus adjuvants, the negative control group was given NaCl. On days 7 and 14, the animals were intratracheally boosted with OVA (to enhance the sensitizing effect). 48 h, 24 h and 2 h before the final inhalative allergen exposure was performed, three groups and a positive control group were subjected to an intratracheal pretreatment with the test substance, ectoine, at three dosage levels. […] After expiry of the waiting period, the animals were anesthetized, orotracheally intubated in a gentle manner and—after placement of an oesophagus catheter and allowing the mice to reach a steady state—their lung functions (including such parameters as tidal volume, breathing frequency, dynamic compliance and lung resistance) were measured body-plethysmographically prior to provocation. The data was collected and evaluated using a computer program (HEM, Notocord/France) specifically developed for these lung function tests.
The lung function parameters were continuously recorded during and after exposure in order to measure bronchospasm.

[4] = system: rats sensitized to ovalbumin (OVA), late allergic reaction; experiment: Ovalbumin-induced allergic asthma in rats, late allergic reaction (hyperreactivity, BAL); assay type: in vivo; conditions: 24 h after the ovalbumin challenge, acetyl-choline hyperreactivity and BAL cell counts, compared to negative control group
Description: as §1
In the first phase of the study, all animals, except for the sham-sensitized group, were systemically sensitized to ovalbumin (OVA) plus adjuvants, the negative control group was given NaCl. On days 7 and 14, the animals were intratracheally boosted with OVA (to enhance the sensitizing effect). […] The two control groups were given only NaCl. After expiry of the waiting period, the animals were anesthetized, orotracheally intubated in a gentle manner and—after placement of an oesophagus catheter and allowing the mice to reach a steady state—their lung functions (including such parameters as tidal volume, breathing frequency, dynamic compliance and lung resistance) were measured body-plethysmographically prior to provocation. The data was collected and evaluated using a computer program (HEM, Notocord/France) specifically developed for these lung function tests.
The late allergic phase was tested 24 h after the ovalbumin challenge. First the animals were tested for airway hyperreactivity to unspecific stimuli. […] Using the lavage liquid, the total and the differential cell counts were determined including the number of esinophiles in the BAL.

[5] = system: ICAM-1 expression; experiment: Inhibition of ICAM-1 expression by ectoine (RT-PCR, UVA radiation); assay type: cell-based; conditions: ceratinzytes pre-incubated for 24 h with 1 mM ectoine, UVA 30 J/cm^2, RT-PCR relative to β-actin
Protocol: ICAM-1 expression was measured using differential reverse transcriptase-PCR (RT-PCR) and the Applied Biosystem Kit. To take account of the normal variations in the gene expression of skin cells, ICAM-1 expression is put into relationship to the constitutively formed house-keeping gene, β-actin. The semi-quantitive analysis of RT-PCR was performed by ion exchange chromatography using a UV spectrophotometer (A260). (A) Non-pretreated, radiated control sample (B) pre-incubated for 24 h with 1 mM RonaCare™ Ectoin and radiated with a single dose of 30 J/cm^2 or (C) pre-incubated for 24 h with 1 mM ectoine, non-irradiated. UVA radiation induces upregulation of ICAM-1 expression.

Row | Compound | inhibition of ICAM-1 expression [1] [%] | effect on bronchial hyperreactivity, BAL cellular composition and release of OVA-specific igE and igG1 antibodies [2] | effect on lung function parameters (early allergic reaction, bronchospasm) [3] | effect on the late allergic reaction [4] | ICAM-1 induction caused by UVA radiation [5]
1 | O=P(O)(OCC(O)CO)OCC(O)CO (centres unmarked) [DGP, 1,1-diglycerol phosphate] | 49 | – | – | – | –
2 | CC1=NCC[C@@H](C(=O)O)N1 [ectoine] | – | significant positive effect | significant positive effect | positive effect | almost completely neutralize
